From patent US20080280953A1, “Agents Used for the Treatment of Seeds” (Bayer Cropscience AG, priority 2004, published 2008)

Legend:
Assay type in all cases: in vivo
[1] = test system: mixed thrips population (Frankliniella occidentalis); experiment: Frankliniella occidentalis test, spraying of cotton plants; settings: 100 ppm, spray on cotton plants
Protocol: (§1) To prepare a suitable active compound preparation 1 part by weight of the active compound is mixed with the given amount of solvent and emulsifier and the concentrate is diluted to the desired concentration with water containing emulsifier.
Cotton plants (Gossypium hirsutum) are treated by spraying with the active compound preparation at the desired concentration and infected with a mixed thrips population (Frankliniella occidentalis).
After the desired time the activity in % is determined. Here 100% means that all thrips were killed; 0% means that no thrips were killed.

[2] = test system: larvae of the Colorado beetle (Leptinotarsa decemlineata); experiment: Leptinotarsa decemlineata larvae test, spraying of potato leaves; settings: 60 g ai/ha, spray on potato leaves
Protocol: as §1
Leaves of potato plants (Solanum tuberosum) that are infested with the larvae of the Colorado beetle (Leptinotarsa decemlineata) are treated by spraying with the active compound preparation at the desired concentration.
After the desired time the activity in % is determined. Here 100% means that all beetle larvae were killed; 0% means that no beetle larvae were killed.

[3] = test system: cotton aphid (Aphis gossypii); experiment: Aphis gossypii test (soil application); settings: 4 ppm in soil, cotton plant
Protocol: (§2) To prepare a suitable active compound preparation 1 part by weight of the active compound is mixed with the given amount of solvent and emulsifier and the concentrate is diluted to the desired concentration with water.
The active compound mixture was mixed with soil. The concentration given refers to amount of active compound per volume unit of soil (mg/l=ppm). Pots are filled with the treated earth and planted with a cotton plant (Gossypium hirsutum). After one week the plants are infected with the cotton aphid (Aphis gossypii).
(§3) After the desired time the death rate in % is determined. Here 100% means that all aphids were killed; 0% means that no aphids were killed.

[4] = test system: green peach aphid (Myzus persicae); experiment: Myzus persicae test (soil application); settings: 4 ppm in soil, pepper plant
Protocol: as §2
The active compound mixture was mixed with soil. The concentration given refers to amount of active compound per volume unit of earth (mg/l=ppm). Pots are filled with the treated earth and planted with a pepper plant (Capsicum annuum). After a week they are infected with the green peach aphid (Myzus persicae).
as §3

[5] = test system: larvae of the corn root worm (Diabrotica balteata); experiment: Diabrotica balteata larvae test (soil application); settings: 8 ppm in soil, maize
Protocol: as §2
The active compound mixture was mixed with soil. The concentration given refers to amount of active compound per volume unit of earth (mg/l=ppm). Pots are filled with the treated earth and planted with 5 maize seeds per pot. 3 days after seeding larvae of the corn root worm (Diabrotica balteata) were placed in the treated soil.
After the desired time the death rate in % is determined. The level of activity is determined by the number of emerging plants

[6] = test system: cotton aphid (Aphis gossypii); experiment: Aphis gossypii test (seed application); settings: 4 g ai/ha, cotton seed treatment
Protocol: as §2
Cotton seeds (Gossypium hirsutum) are treated with the active compound preparation and sown into soil. After ca. 2 week the cotton plants are infected with the cotton aphid (Aphis gossypii). After the desired time the death rate in % is determined. Here 100% means that all aphids were killed; 0% means that no aphids were killed.

[7] = test system: bird cherry-oat aphid (Rhopalosiphon padi); experiment: Rhopalosiphon padi test (seed application); settings: 1.4 g ai/kg, barley seed treatment
Protocol: as §2
Barley seed (Hordeum vulgare) is treated with the active compound preparation and sown into the soil. After about 1 week the barley plants are infected with the bird cherry-oat aphid (Rhopalosiphon padi).
as §3

[8] = test system: Lucilia cuprina larvae; experiment: Fly larvae test; settings: 100 ppm
Protocol: 10 mg active compound were dissolved in 0.5 ml dimethylsulphoxide. To prepare a suitable formulation the active compound solution is diluted with water to the respective desired concentration.
About 20 Lucilia cuprina larvae are placed in a test tube that contains ca. 1 cm^3 horse flesh and 0.5 ml of the active compound preparation under test.
After the desired time the death rate in % is determined. Here 100% means that all larvae were killed; 0% means that no larvae were killed.

[9] = test system: white fly (Bemisia tabaci) eggs and larvae; experiment: Bemisia tabaci test, treated soil (Example Z); settings: 4 ppm in soil, cotton plant
Protocol: as §2
The active compound preparation is mixed with earth. The concentration given relates to the amount of active compound per volume unit soil (mg/l=ppm). The treated earth is filled into pots and planted with a cotton plant (Gossypium hirsutum). After a week infection is carried out with white fly (Bemisia tabaci) for egg deposition.
After the desired time the death rate of eggs and larvae, respectively, in % is determined. Here 100% means that all animals were killed; 0% means that no animals that were killed.

[10] = test system: white fly (Bemisia tabaci), all stages; experiment: Bemisia tabaci test, open land (spray treatment); settings: 300 g/ha, spray on paprika plants
Protocol: (§4) To prepare a suitable active compound preparation 1 part by weight of the active compound is mixed with the given amount of water to the desired concentration.
Paprika plants (Capsicum annuum) that are infested with all stages of the white fly (Bemisia tabaci) are sprayed with an active compound preparation at the desired concentration.
After the desired time the death rate in % is determined. Here 100% means that all white fly were killed; 0% means that no white fly were killed.

[11] = test system: onion thrips (Thrips tabaci); experiment: Thrips tabaci test, open land (spray treatment); settings: 300 g/ha, spray on onions
Protocol: as §4
Onions (Allium cepa) that are infested with all stages of the onion thrips (Thrips tabaci) are sprayed with an active compound preparation at the desired concentration.
After the desired time the death rate in % is determined. Here 100% means that all thrips were killed; 0% means that no thrips were killed.

[12] = test system: brown plant hopper (Nilaparvata lugens); experiment: Nilaparvata lugens test, open land (spray treatment); settings: 300 g/ha, spray on rice plants
Protocol: as §4
Rice plants (Oryza sativa) that are infested with all stages of the brown plant hopper (Nilaparvata lugens) are sprayed with an active compound preparation at the desired concentration.
After the desired time the death rate in % is determined. Here 100% means that all plant hoppers were killed; 0% means that no plant hoppers were killed.

[13] = test system: green leaf hopper (Nephotettix sp.); experiment: Nephotettix sp. test, open land (spray treatment); settings: 300 g/ha, spray on rice plants
Protocol: as §4
Rice plants (Oryza sativa) that are infested with all stages of the green leaf hopper (Nephotettix sp.) are sprayed with an active compound preparation at the desired concentration.
After the desired time the death rate in % is determined. Here 100% means that all leaf hoppers were killed; 0% means that no leaf hoppers were killed.

[14] = test system: mealy cabbage aphid (Brevicoryne brassicae); experiment: Brevicoryne brassicae test, open land (drench application); settings: 0.04 g/plant, drench on cabbage plants
Protocol: as §4
Cabbage plants (Brassica oleracea) that are infested with all stages of the mealy cabbage aphid (Brevicoryne brassicae) are drenched with an active compound preparation at the desired concentration.
as §3

[15] = test system: mealy cabbage aphid (Brevicoryne brassicae); experiment: Brevicoryne brassicae test, open land (spray treatment), Example M1; settings: 300 g/ha, spray on cabbage plants
Protocol: as §4
Cabbage plants (Brassica oleracea) that are infested with all stages of the mealy cabbage aphid (Brevicoryne brassicae) are sprayed with an active compound preparation at the desired concentration.
After the desired time the death rate in % is determined. Here 100% means that all nymphs were killed; 0% means that no nymphs were killed.

Compound	Activity in % after 14 d [1] [%]	Activity in % after 6 d [2] [%]	Activity in % after 7 d [3] [%]	Activity in % after 7 d [4] [%]	Activity in % after 4 d [5] [%]	Activity in % after 7 d [6] [%]	Activity in % after 7 d [7] [%]	death rate after 2 days [8] [%]	death rate after 14 days [9] [%]	death rate after 65 days [10] [%]	death rate after 14 days [11] [%]	death rate after 14 days [12] [%]	death rate after 15 days [13] [%]	death rate after 35 days [14] [%]	death rate after 28 days [15] [%]
CN(Cc1ccc(Cl)nc1)C1=CC(=O)OC1 [Compound 84]	99	100	100	100	100	100	100	100	100	93	89	91	98	100	96
O=C1C=C(N(Cc2ccc(Cl)nc2)C2CC2)CO1 [Compound 88]	99	100	100	100	90	100	100	100	100	93	98	99	99	97	99
